The numbers were not newly measured in patent US20020018777A1, “STERILIZATION OF VIRUS INFECTED PLASMA” (priority 1995, published 2002), which cites them from elsewhere.

SMILES strings stand for the structures.

The conditions of the data set: concentrated BPL, animals.

On to `O=C1CCO1` [BPL, β-propiolactone], for which the carcinogenicity entry is listed as “carcinogenic”.
